“Also recorded” adds a separate entry of the source. Peptide text beside a SMILES is read from it.
What was measured:
[1] = system: Stomach ulcers induced by the Shay procedure; assay: Shay model, stomach ulcer formation and acid secretion (Example 8); type: in vivo, rat; conditions: for pH: stomach contents after 24 hours; for % WITH ULCERS: positive if a single lesion is noted; for Ulcer formation and stomach acid secretion, in words: Shay model, compared with saline controls
Method: Stomach ulcers were induced in rats by the Shay procedure. Briefly, the passage between the stomach and the intestine in the rat is tied off, thereby causing a buildup of stomach acid. Ulcer formation is visible after 18-24 hours of ligation.
For treatment, the rats received either GHL-Cu or a derivative in 0.25 ml of saline into the stomach via a gastric feeding tube immediately after the surgical procedure. Control rats received saline only. After 24 hours, the rats were sacrificed, the stomachs were removed and photographed. The acidity of the stomach contents was also measured.
In the experiments reported here, the rats were treated with various doses of glycyl-L-histidyl-L-lysine (GHL), GHL-Cu (2:1), or GHL-Cu (1:1) complex of various analogs of GHL as the 1:1 copper complexes.
Stomach ulcers were induced in groups of rats as described above. The animals were dosed with increasing amounts of either GHL:Cu at a molar ration of 2 moles of GHL to 1 mole of Cu (2:1), equimolar complex (1:1), and GHL without copper. After 24 hours, the stomachs were removed, the pH was determined and the percent of stomachs with visible ulcers was determined.
The presence of ulcers is scored positive if a single lesion is noted, regardless of the size.

[2] = system: Stomach ulcers induced by the Shay procedure (buildup of stomach acid); assay: Shay model, stomach acidity and mucous secretion (Example 7); type: in vivo, rat; set-up: key to Mucous Production: 0 represented substantially no mucous observed; ++++ represented a very heavy mucous secretion; conditions: rats, after 24 hours; for Stomach acidity pH ± standard deviation: 10 mg in 0.25 ml saline intubated into the stomach
Method: Stomach ulcers were induced in rates by the Shay procedure. Briefly stated, the passage between the stomach and the intestine in the rat is tied off, thereby causing a buildup of stomach acid, resulting in ulceration. For treatment, the rats received 10 mg of GHL or GHL-Cu or a derivative thereof in 0.25 ml saline intubated into the stomach. Control rats received saline only. After 24 hours, the stomachs were photographed and the stomach acidity determined.
The results of the experiments are shown in Table 1, which depicts the inhibition of stomach acid accumulation and stimulation of cytoprotective mucous secretion in the rats. The mucous production was visually rated from 0 to ++++, where 0 represented substantially no mucous observed and ++++ represented a very heavy mucous secretion.

[3] = system: gastric ulcers induced by 95% ethanol; assay: Prevention of ethanol-induced gastric ulcers (Example 10); type: in vivo, SD rats; conditions: for Prevention of ethanol-caused gastric irritation and ulceration, in words: pretreatment, 95% ethanol ingestion; for Ulceration after ethanol, in words: stomachs inspected one hour after ethanol
Method: (§1) A series of ethanol induced gastric ulcer studies was conducted. Ulcers were induced by oral administration of 95% ethyl alcohol (Scan. J. Gastroenterol 23:665-671 (1988)). The studies were conducted to determine both the preventative and healing effects of glycl-L-histidyl-L-lysine:Cu.
A dose of 2.0 ml/kg 95% ethanol was chosen to induce gastric ulcers in rats. Prior to the ethanol ingestion, three groups of rats were pretreated with 0.5 ml of 2% glycyl-L-histidyl-L-lysine:Cu (1:1) as follows:
Group 1: 2 hours prior to Ethanol dosing
Group 2: 4 hours prior to Ethanol dosing
Group 3: 6 hours prior to Ethanol dosing
In addition, 4 rats served as controls with no pretreatment. One hour following ethanol administration, the stomachs were removed and inspected for ulceration as described above.

[4] = system: Duodenal ulcers induced by cysteamine; assay: Healing of cysteamine-induced duodenal ulcers (Example 9); type: in vivo, S.D. rats; conditions: for Healing of duodenal ulcers, in words: drinking water treatment, compared to controls
Method: Cysteamine will induce chronic duodenal ulcers in rats when injected subcutaneously (Olsen, P. S., Poulsen, S. S., Therkelsen, K., and Nexo, E., Oral administration of synthetic human urogastrone promotes healing of chronic duodenal ulcers in rats, Gastroenterology 90:911-917 (1986)).
Duodenal ulcers were induced in a group of 40 S.D. rats (male and female) by subcutaneous injections of cysteamine (350 mg/kg and 175 mg/kg) 6 hours apart. Saline was injected subcutaneously (5 cc) to provide fluid. Surviving animals (n=34) were followed for 7 days then laparotomies were performed. External examinations of the duodenum were made to determine extent of adhesion of the liver or other surrounding tissues. Animals with duodenal ulcers were randomized (by sex) to receive GHL-Cu (2:1) in distilled water, or plain distilled water. Animals were maintained for 25 days after which they were sedated, stomachs and duodenums removed and dissected for internal inspection. The results were obtained and recorded, specimens immersed in 10% buffered formalin for analysis with a stereomicroscope.
(§2) The following rating scale was used to express severity of ulceration:
(§3) 0--no indication of ulceration
1--mild ulceration, no extension through duodenum
2--moderate ulceration, fixation of surrounding tissue
3--extreme ulceration through duodenum
On the day of laparotomy, 28 rats ([…]) were determined to have significant adhesion of the duodenum to surrounding tissues. These animals were randomized by sex to either the GHL-Cu or control group. Following 25 days of drinking water treatment (total dose per day of 0.6 mg/kg), rats were sedated and prepped for dissection. The stomach and duodenum were removed, notations made as to extent of residual adhesions. Internal inspection of the duodenum was made prior to immersion of specimen in 10% formalin. Results at the time of gross inspection indicated 11 out of 14 control animals had significant residual ulcerations extending to the liver primarily.

[5] = system: ulcers induced by 95% ethanol; assay: Healing of ethanol-induced gastric ulcers (Example 10); type: in vivo, rats; conditions: for Healing of ethanol-induced ulcers, in words: drinking water treatment, compared to controls; for # animals with rating 0 (no indication of ulceration) / # animals with rating 1 (some irritation) / # animals with rating 2 (small ulcers present) / # animals with rating 3 (large ulcers present): day 7
Method: as §1
The ability of glycyl-L-histidyl-L-lysine:Cu (2:1) to heal ulcers induced by 95% ethanol has also been examined. In this study, ulcers were induced by administration of 4 ml/kg of 95% ethanol. The rats were then treated with glycyl-L-histidyl-L-lysine:Cu (2:1) in the drinking water at a dose of 0.01 mg/ml and 0.1 mg/ml (total dose per day of 1.6 mg/kg and 16 mg/kg, respectively). The rats were terminated at day 7 after ulcer induction and the stomachs examined for the presence of ulcers.
as §2, §3

[6] = microscopic examination, 25 days drinking water, 0.6 mg/kg per day
[7] = GHL-Cu (2:1) 0.01 mg/ml in drinking water (1.6 mg/kg per day)
[8] = GHL-Cu (2:1) 0.1 mg/ml in drinking water (16 mg/kg per day)

Molecule	pH ([1]; dose 10 mg into stomach)	% WITH ULCERS ([1]; dose 10 mg, after 24 hours)	Stomach acidity pH ± standard deviation [2]	Prevention of ethanol-caused gastric irritation and ulceration, in words [3]	Ulcer formation and stomach acid secretion, in words [1]	pH ([1]; dose 3 mg into stomach)	% WITH ULCERS ([1]; dose 3 mg, after 24 hours)	Healing of duodenal ulcers, in words [4]	Healing of ethanol-induced ulcers, in words [5]	further results
NCCCC[C@H](NC(=O)[C@H](Cc1c[nH]cn1)NC(=O)CN)C(=O)O [GHL, glycyl-L-histidyl-L-lysine] (H-Gly-His-Lys-OH)	2.84 ± 0.90 pH	40%	3.26 ± 0.47 pH	–	–	–	–	–	–	–
L-lysyl-L-histidyl-glycine:copper(II) [LGH-Cu]	–	–	–	prevent gastric irritation and ulceration	decreased stomach acid secretion and resulted in fewer visible lesions	3.61 ± 1.00 pH	11%	accelerate the healing of established duodenal ulcers	accelerate the healing of ulcers	–
glycyl-L-histidyl-L-lysine n-octyl ester:copper(II) [GHL octyl ester:Cu]	6.18 ± 0.98 pH	0%	–	–	–	3.50 ± 1.18 pH	25%	–	–	–
glycyl-L-histidyl-L-lysine:Cu (1:1) [GHL-Cu(1:1)]	7.23 ± 0.64 pH	0%	–	–	inhibited ulcer formation and raised the pH of the stomach contents in a dose responsive manner	4.85 ± 1.17 pH	0%	–	–	Ulceration after ethanol, in words ([3]; 0.5 ml of 2% solution 2 hours prior to 2.0 ml/kg 95% ethanol): No evidence of ulceration; also recorded: totally blocking damage; Ulceration after ethanol, in words ([3]; 0.5 ml of 2% solution 4 hours prior to 2.0 ml/kg 95% ethanol): Significantly better than controls, however, small ulcers were visible; Ulceration after ethanol, in words ([3]; 0.5 ml of 2% solution 6 hours prior to 2.0 ml/kg 95% ethanol): Mixed results; Lesion formation, in words (photographs, FIG. 1) ([1]; 10 mg, after 24 hours): complete inhibition of lesion formation; pH ([1]; dose 1 mg into stomach): 3.80 ± 1.34 pH; % WITH ULCERS ([1]; dose 1 mg, after 24 hours): 33%
glycyl-L-histidyl-L-lysine:Cu (2:1) [GHL-Cu(2:1)]	6.38 ± 1.01 pH	11%	–	–	inhibited ulcer formation and raised the pH of the stomach contents in a dose responsive manner	2.72 ± 1.03 pH	50%	the severity was reduced	–	# animals with rating 0 (no indication of ulceration) [4, 6]: 4 animals; # animals with rating 1 (mild ulceration, no extension through duodenum) [4, 6]: 5 animals; # animals with rating 2 (moderate ulceration, fixation of surrounding tissue) [4, 6]: 3 animals; # animals with rating 3 (extreme ulceration through duodenum) [4, 6]: 2 animals
glycyl-L-histidyl-L-lysine:copper(II) [GHL-Cu]	–	–	6.94 ± 0.25 pH	prevent gastric irritation and ulceration	decreased stomach acid secretion and resulted in fewer visible lesions	–	–	accelerate the healing of established duodenal ulcers	majority of the animals had no demonstrable ulcers; also recorded: accelerate the healing of ulcers	Animals with residual ulcerations at gross inspection ([4]; GHL-Cu (2:1) in drinking water 25 days, 0.6 mg/kg per day, control 11 out of 14): 7 out of 14; Mucous Production ([2]; 10 mg in 0.25 ml saline, visually rated 0 to ++++): ++++; # animals with rating 0 (no indication of ulceration) [5, 7]: 5 animals; # animals with rating 1 (some irritation) [5, 7]: 2 animals; # animals with rating 2 (small ulcers present) [5, 7]: 0 animals; # animals with rating 3 (large ulcers present) [5, 7]: 0 animals; # animals with rating 0 (no indication of ulceration) [5, 8]: 5 animals; # animals with rating 1 (some irritation) [5, 8]: 1 animals; # animals with rating 2 (small ulcers present) [5, 8]: 1 animals; # animals with rating 3 (large ulcers present) [5, 8]: 0 animals
